# Values quoted from earlier work as cited in patent US7563785B2, “Quetiapine analogs and methods of use thereof” (Hypnion, Inc., priority 2004, dated 2009).
# pKi: −log10 of the molar value.
# Target: T1, human recombinant M1 expressed in CHO cells (Homo sapiens, UniProt P11229)
# T1 construct: purchased PerkinElmer, Inc., Wellesley, Mass; host or cells: CHO cells
# T1 sequence (P11229 1-460): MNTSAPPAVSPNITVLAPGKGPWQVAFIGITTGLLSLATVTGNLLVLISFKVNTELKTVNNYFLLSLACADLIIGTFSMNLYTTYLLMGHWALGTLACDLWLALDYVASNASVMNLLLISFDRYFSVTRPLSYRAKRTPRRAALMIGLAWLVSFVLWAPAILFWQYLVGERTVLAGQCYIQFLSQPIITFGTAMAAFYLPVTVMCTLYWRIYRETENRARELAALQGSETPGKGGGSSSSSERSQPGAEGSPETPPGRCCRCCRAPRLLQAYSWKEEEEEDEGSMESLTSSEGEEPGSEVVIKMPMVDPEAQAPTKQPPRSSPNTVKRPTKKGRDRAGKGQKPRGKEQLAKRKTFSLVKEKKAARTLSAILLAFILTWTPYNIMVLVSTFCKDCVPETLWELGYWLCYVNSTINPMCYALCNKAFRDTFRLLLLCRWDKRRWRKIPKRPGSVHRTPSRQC
# Conditions: reference compounds; read-out: Ki of reference compounds in M1 binding assay
compound,measurement,value
C[N+]1(C)CCC(OC(=O)C(c2ccccc2)c2ccccc2)CC1 [4-DAMP methiodide],pKi,9.57
